Experimental data from US10457707B2, “Substituted urea depsipeptide analogs as activators of the CLPP endopeptidase” (priority 2015, dated 2019).
In brackets after ≈: the same amount, converted by molar mass. Like-named read-outs stand apart in the source and are kept apart here. *1 amine or outer side, *2 acyl side, *3 side chain or, on linkers, in order; H or OH if unused. Where a SMILES comes first, the peptide text is derived from it. Bridges are numbered along the chain shown (N, C = ends). [ ]: non-standard residue; d: D form. The star is where a group is joined. ξ: configuration not given here. NH(1,3-benzodioxol-5-yl) = c1cc2c(cc1N*)OCO2; Phe(3,5-F2) = N[C@@H](Cc1cc(F)cc(F)c1)C(=O)O; Morpholine(3S-CO) = O=C(O)[C@@H]1COCCN1; Pro(4S-Me) = C[C@@H]1CN[C@H](C(=O)O)C1; Pro(4R-Me) = C[C@H]1CN[C@H](C(=O)O)C1; X11 = O=C(C1C[C@@H](F)CN1[*:1])[*:2]; ξPro(4R-Me) = C[C@H]1CNC(C(=O)O)C1; NMeT = CN[C@H](C(=O)O)[C@@H](C)O; NH(4-Me-phenyl) = Cc1ccc(N*)cc1; aThr = C[C@H](O)[C@H](N)C(=O)O; X5 = O=C(C1COCCN1[*:1])[*:2]; Pip = O=C(O)[C@@H]1CCCCN1; ξPip = O=C(O)C1CCCCN1; CO = O=C([*:1])[*:2]; ξP = O=C(O)C1CCCN1

Key:
Type in all cases: cell-based
[1] = Cytotoxicity assay (CellTiter-Glo cell viability, 72 hours); conditions: African green monkey
Experimental: Cytotoxicity was determined by determining the effect of compounds on cell viability. Vero (kidney epithelial cells; ATCC CCL-81) monolayers were trypsinized and 5000 cells/well were seeded (10-15% confluency) into white-wall, flat bottom 96 well microwell plates (Corning) using enriched Dulbecco's Modified Eagle's Medium (Hyclone:DMEM/High Glucose) containing 10% Fetal Bovine Serum (ATCC-30-2020). Plates were incubated overnight at 37° C. in the presence of 5% CO2. Drug-free media was then replaced with media containing serial dilutions of test compound or DMSO carrier. After an additional 72 hours of incubation, viability was indirectly measured using the CellTiter-Glo® Luminescent Cell Viability (Promega) assay. Assay plates were read at peak emission wavelength of 560 nm using a EnVision® Multilabel Plate Reader (Perkin Elmer) or PHERAstar FS Multilabel reader (BMG, Cary, N.C.). […] USA, www.graphpad.com]. For each experiment, compounds were tested in duplicate. IC50 values presented are the range of two biologically independent experiments.

[2] = tested on: Bacillus subtilis, ATCC 23857; assay: Minimal inhibitory concentration assay (microbroth dilution)
Experimental: (§1) It is understood, that in various aspects, the MIC is determined by a microbroth dilution method. In a further aspect, the MIC is determined by a microbroth dilution method using Staphylococcus aureus, ATCC 29213. In a still further aspect, the MIC is determined by a microbroth dilution method using Staphylococcus aureus, NRS70. In a yet further aspect, the MIC is determined by a microbroth dilution method using Streptococcus pyogenes, ATCC 700294. In an even further aspect, the MIC is determined by a microbroth dilution method using Streptococcus pneumoniae, DAW27. In a still further aspect, the MIC is determined by a microbroth dilution method using Bacillus subtilis, ATCC 23857. In a yet further aspect, the MIC is determined by a microbroth dilution method using Enterococcus faecalis, ATCC 33186. In an even further aspect, the MIC is determined using Staphylococcus aureus, USA 300. In a still further aspect, the MIC is determined using Streptococcus pneumoniae, R6. In a further aspect, the MIC is determined using Staphylococcus aureus, USA 300 and compared to the MIC determined using Staphylococcus aureus, USA 300 wherein ClpP is inactivated, thus allowing confirmation that killing is via a ClpP-dependent pathway.
(§2) Minimal inhibitory concentrations (“MICs”) were determined using the microbroth dilution method according to Clinical Laboratory Standards Institute (CLSI; National, C.F. C. L. S., Methods for Dilution Antimicrobial Susceptibility Tests for Bacteria Grow aerobically-Seventh Edition: Approved Standard M7-A7, CLSI, Wayne, Pa., USA, 2008) and were read by visual inspection. Two fold serial dilutions of test compound in 100 μL of the appropriate broth media were first prepared in 96-well round bottom microtiter plates (Nalgene Nunc International, Rochester, N.Y., USA). An equivalent volume (100 μL) of bacterial broth inocula containing approximately 10^5 bacterial cfu/mL was added to each well to give final concentrations of test compound starting at 200 μM. The plates were then incubated aerobically at 37° C. All strains were incubated overnight. After incubations, in all cases the MIC was recorded as the lowest concentration of drug that prevented bacterial growth. The bacterial strains for which MIC was determined as described in Table 4.

[3] = tested on: Staphylococcus aureus, ATCC 29213; assay: as above; conditions: ATCC29213, read-out: Minimal Inhibitory Concentrations S. aureus ATCC 29213
Experimental: as §1, §2

[4] = tested on: Staphylococcus aureus, NRS70; assay: as above
Experimental: as §1, §2

[5] = tested on: Streptococcus pyogenes, ATCC 700294; assay: as above
Experimental: as §1
Minimal inhibitory concentrations (“MICs”) were determined using the microbroth dilution method according to Clinical Laboratory Standards Institute (CLSI; National, C.F. C. L. S., Methods for Dilution Antimicrobial Susceptibility Tests for Bacteria Grow aerobically-Seventh Edition: Approved Standard M7-A7, CLSI, Wayne, Pa., USA, 2008) and were read by visual inspection. Two fold serial dilutions of test compound in 100 μL of the appropriate broth media were first prepared in 96-well round bottom microtiter plates (Nalgene Nunc International, Rochester, N.Y., USA). […] The plates were then incubated aerobically at 37° C. All strains were incubated overnight. After incubations, in all cases the MIC was recorded as the lowest concentration of drug that prevented bacterial growth. The bacterial strains for which MIC was determined as described in Table 4.

[6] = tested on: Staphylococcus aureus, USA 300 wherein ClpP is inactivated; assay: Minimal inhibitory concentration assay
Experimental: as §1, §2

[7] = tested on: Staphylococcus aureus, USA 300; assay: Minimal inhibitory concentration assay; conditions: USA300, read-out: Minimal Inhibitory Concentrations S. aureus USA 300
Experimental: as §1, §2

[8] = tested on: Streptococcus pneumoniae, R6; assay: Minimal inhibitory concentration assay; conditions: read-out: Minimal Inhibitory Concentrations S. pneumoniae R6
Experimental: It is understood, that in various aspects, the MIC is determined by a microbroth dilution method. […] In a still further aspect, the MIC is determined by a microbroth dilution method using Staphylococcus aureus, NRS70. […] In an even further aspect, the MIC is determined by a microbroth dilution method using Streptococcus pneumoniae, DAW27. […] In an even further aspect, the MIC is determined using Staphylococcus aureus, USA 300. In a still further aspect, the MIC is determined using Streptococcus pneumoniae, R6. In a further aspect, the MIC is determined using Staphylococcus aureus, USA 300 and compared to the MIC determined using Staphylococcus aureus, USA 300 wherein ClpP is inactivated, thus allowing confirmation that killing is via a ClpP-dependent pathway.
Two fold serial dilutions of test compound in 100 μL of the appropriate broth media were first prepared in 96-well round bottom microtiter plates (Nalgene Nunc International, Rochester, N.Y., USA). […] The plates were then incubated aerobically at 37° C. All strains were incubated overnight. After incubations, in all cases the MIC was recorded as the lowest concentration of drug that prevented bacterial growth. The bacterial strains for which MIC was determined as described in Table 4.

[9] = Bacillus subtilis, ATCC23857; read-out: Minimal Inhibitory Concentrations B. subtilis ATCC 23857
[10] = Staphylococcus aureus, NRS70; read-out: Minimal Inhibitory Concentrations S. aureus NRS70
[11] = Streptococcus pyogenes, ATCC700294; read-out: Minimal Inhibitory Concentrations S. pyogenes ATCC 700294
[12] = Bacillus subtilis, ATCC23857, read-out: Minimal Inhibitory Concentrations B. subtilis ATCC 23857
[13] = Staphylococcus aureus, NRS70, read-out: Minimal Inhibitory Concentrations S. aureus NRS70
[14] = Streptococcus pyogenes, ATCC700294, read-out: Minimal Inhibitory Concentrations S. pyogenes ATCC 700294

SMILES	IC50 at 72 h [1]	MIC [2, 9]	MIC [3]	MIC [4, 10]	MIC [5, 11]	Minimal Inhibitory Concentrations S. aureus USA 300 ΔClpP [6]	MIC [7]	MIC [8]	MIC [2, 12]	MIC [4, 13]	MIC [5, 14]
C[C@H]1C[C@H]2C(=O)O[C@@H](C)[C@H](NC(=O)[C@H](Cc3cc(F)cc(F)c3)NC(=O)Nc3ccc4c(c3)OCO4)C(=O)N3CCC[C@H]3C(=O)N3CCCC[C@H]3C(=O)N[C@@H](C)C(=O)N2C1 [Compound 196, (S)-2-(3-(benzo[d][1,3]dioxol-5-yl)ureido)-3-(3,5-difluorophenyl)-N-((2R,6S,8aS,14aS,20S,21S,23aS)-2,6,21-trimethyl-5,8,14,19,23-pentaoxooctadecahydro-1H,5H,14H,19H-pyrido[2,1-i]dipyrrolo[2,1-c:2′,1′-l][1]oxa[4,7,10,13]tetraazacyclohexadecin-20-yl)propanamide] ({NH(1,3-benzodioxol-5-yl)-CO}-[Phe(3,5-F2)][aThr]P[Pip]A[Pro(4S-Me)]; ester 2-C)	52.8 ± 4.9 µM	–	–	–	–	–	–	–	–	–	–
C[C@@H]1C[C@H]2C(=O)O[C@@H](C)[C@H](NC(=O)[C@H](Cc3cc(F)cc(F)c3)NC(=O)Nc3ccc4c(c3)OCO4)C(=O)N3CCC[C@H]3C(=O)N(C)[C@@H]([C@@H](C)O)C(=O)N[C@@H](C)C(=O)N2C1 [Compound 197, (S)-2-(3-(benzo[d][1,3]dioxol-5-yl)ureido)-3-(3,5-difluorophenyl)-N-((2R,6S,9S,11aS,17S,18S,20aS)-9-((R)-1-hydroxyethyl)-2,6,10,18-tetramethyl-5,8,11,16,20-pentaoxohexadecahydro-1H,5H,16H-dipyrrolo[2,1-c:2′,1′-l][1]oxa[4,7,10,13]tetraazacyclohexadecin-17-yl)propanamide] ({NH(1,3-benzodioxol-5-yl)-CO}-[Phe(3,5-F2)][aThr]P[NMeT]A[Pro(4R-Me)]; ester 2-C)	–	< 0.02 µM	0.039 µM (≈ 0.0328 µg/mL)	0.039 µM (≈ 0.0328 µg/mL)	0.039 µM (≈ 0.0328 µg/mL)	>20 µM	0.078 µM (≈ 0.0657 µg/mL)	< 0.02 µM	–	–	–
Cc1ccc(NC(=O)N[C@@H](Cc2cc(F)cc(F)c2)C(=O)N[C@H]2COC(=O)C3C[C@@H](F)CN3C(=O)[C@H](C)NC(=O)C3CCCCN3C(=O)C3CCCN3C2=O)cc1 (stereo partly drawn) [Compound 51, (S)-3-(3,5-difluorophenyl)-N-((2R,6S,8aS,14aS,20S,23aS)-2-fluoro-6-methyl-5,8,14,19,23-pentaoxooctadecahydro-1H,5H,14H,19H-pyrido[2,1-i]dipyrrolo[2,1-c:2′,1′-l][1]oxa[4,7,10,13]tetraazacyclohexadecin-20-yl)-2-(3-(p-tolyl)ureido)propanamide] ({NH(4-Me-phenyl)-CO}-[Phe(3,5-F2)]S[ξP][ξPip]A[X11]; ester 2-C)	–	–	12.5 µM (≈ 9.97 µg/mL)	–	–	>200 µM	12.5 µM (≈ 9.97 µg/mL)	6.3 µM (≈ 5.03 µg/mL)	> 200 µM	6.3 µM (≈ 5.03 µg/mL)	12.5 µM (≈ 9.97 µg/mL)
C[C@@H]1C[C@H]2C(=O)O[C@@H](C)[C@H](NC(=O)[C@H](Cc3cc(F)cc(F)c3)NC(=O)Nc3ccc4c(c3)OCO4)C(=O)N3CCC[C@H]3C(=O)N3CCOC[C@H]3C(=O)N[C@@H](C)C(=O)N2C1 [Compound 199, (S)-2-(3-(benzo[d][1,3]dioxol-5-yl)ureido)-3-(3,5-difluorophenyl)-N-((6aS,12S,13S,15aS,17R,21S,23aS)-13,17,21-trimethyl-6,11,15,20,23-pentaoxooctadecahydro-6H,11H,15H-[1,4]oxazino[3,4-i]dipyrrolo[2,1-c:2′,1′-l][1]oxa[4,7,10,13]tetraazacyclohexadecin-12-yl)propanamide] ({NH(1,3-benzodioxol-5-yl)-CO}-[Phe(3,5-F2)][aThr]P[Morpholine(3S-CO)]A[Pro(4R-Me)]; ester 2-C)	–	0.039 µM (≈ 0.0328 µg/mL)	0.039 µM (≈ 0.0328 µg/mL)	0.039 µM (≈ 0.0328 µg/mL)	0.039 µM (≈ 0.0328 µg/mL)	>20 µM	0.078 µM (≈ 0.0655 µg/mL)	< 0.02 µM	–	–	–
CN[C@@H]1[C@H](O)[C@H](NC)[C@H]2O[C@@]3(O)C(=O)C[C@@H](C)O[C@H]3O[C@@H]2[C@H]1O [Spectinomycin, spectinomycin, reference compound]	–	6.3 µM (≈ 2.09 µg/mL)	50 µM (≈ 16.6 µg/mL)	> 800 µM	12.5 µM (≈ 4.15 µg/mL)	25 µM	50 µM (≈ 16.6 µg/mL)	6.3 µM (≈ 2.09 µg/mL)	–	–	–
Cc1ccc(NC(=O)N[C@@H](Cc2cc(F)cc(F)c2)C(=O)N[C@@H]2C(=O)N3CCCC3C(=O)N3CCOCC3C(=O)N[C@@H](C)C(=O)N3C[C@H](C)CC3C(=O)O[C@H]2C)cc1 (stereo partly drawn) [Compound 47, (S)-3-(3,5-difluorophenyl)-2-(3-(p-tolyl)ureido)-N-((6aS,12S,13S,15aS,17R,21S,23aS)-13,17,21-trimethyl-6,11,15,20,23-pentaoxooctadecahydro-6H,11H,15H-[1,4]oxazino[3,4-i]dipyrrolo[2,1-c:2′,1′-l][1]oxa[4,7,10,13]tetraazacyclohexadecin-12-yl)propanamide] ({NH(4-Me-phenyl)-CO}-[Phe(3,5-F2)][aThr][ξP][X5]A[ξPro(4R-Me)]; ester 2-C)	–	–	0.003 µM (≈ 0.00243 µg/mL)	–	–	>200 µM	0.01 µM (≈ 0.0081 µg/mL)	0.002 µM (≈ 0.00162 µg/mL)	0.8 µM (≈ 0.648 µg/mL)	0.0002 µM (≈ 0.000162 µg/mL)	0.02 µM (≈ 0.0162 µg/mL)
Cc1ccc(NC(=O)N[C@@H](Cc2cc(F)cc(F)c2)C(=O)N[C@H]2COC(=O)C3C[C@H](C)CN3C(=O)[C@H](C)NC(=O)C3CCCCN3C(=O)C3CCCN3C2=O)cc1C (stereo partly drawn) [Compound 48, (S)-3-(3,5-difluorophenyl)-N-((2S,6S,8aS,14aS,20S,23aS)-2,6-dimethyl-5,8,14,19,23-pentaoxooctadecahydro-1H,5H,14H,19H-pyrido[2,1-i]dipyrrolo[2,1-c:2′,1′-l][1]oxa[4,7,10,13]tetraazacyclohexadecin-20-yl)-2-(3-(3,4-dimethylphenyl)ureido)propanamide]	–	–	1.6 µM (≈ 1.29 µg/mL)	–	–	200 µM	1.6 µM (≈ 1.29 µg/mL)	0.8 µM (≈ 0.646 µg/mL)	0.2 µM (≈ 0.162 µg/mL)	0.4 µM (≈ 0.323 µg/mL)	3.1 µM (≈ 2.5 µg/mL)
